Measurements from US11629171B2, “Beta-hairpin peptidomimetics” (POLYPHOR AG, priority 2017, dated 2023).
Converted amounts (≈) assume the structure as drawn. Where a SMILES comes first, the peptide text is derived from it. Bridges are numbered along the chain shown (N, C = ends). Roman numbers before positions name the chains, in order. [ ]: non-standard residue; d: D form. Thr(ol) = C[C@@H](O)[C@H](N)CO; Tle = CC(C)(C)[C@H](N)C(=O)O; Hiv = CC(C)[C@H](O)C(=O)O; dDab = NCC[C@@H](N)C(=O)O; hSer = N[C@@H](CCO)C(=O)O; Dab = NCC[C@H](N)C(=O)O; Dap = NC[C@H](N)C(=O)O

Experiments:
Assay type in all cases: cell-based
Escherichia coli 926415 = conditions: 926415
Summary of the method: (§1)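 MIC in μg/mL, read as no visible growth after 18-20 hours at 35° C. Peptides were serially diluted two-fold in MH-II broth plus P-80 (0.002% final, v/v) and inoculated at about 10^6 CFU/mL following the CLSI broth microdilution standard.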

[1] = tested on: Pseudomonas aeruginosa ATCC 27853; conditions: ATCC 27853
Summary of the method: as §1

[2] = tested on: Escherichia coli ATCC 25922; conditions: ATCC 25922
Summary of the method: as §1

[3] = tested on: Klebsiella pneumoniae SSI #3010; conditions: SSI #3010
Summary of the method: as §1

[4] = tested on: Acinetobacter baumannii 872842; conditions: 872842
Summary of the method: as §1

[5] = tested on: Enterobacter cloacae 848840; conditions: 848840
Summary of the method: as §1

[6] = tested on: Klebsiella pneumoniae 968733; conditions: 968733
Summary of the method: as §1

[7] = tested on: Acinetobacter baumannii DSM 30008; conditions: DSM 30008
Summary of the method: as §1

[8] = tested on: human red blood cells (hRBC); test: Hemolysis; conditions: red cells of human, 1 h, 200
Summary of the method: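 Hemoglobin release from PBS-washed hRBC at 20% (v/v), incubated 1 h at 37° C with peptides at 200 μg/mL, is measured at 540 nm. Values are blank corrected and given as a fraction of Triton X-100 lysis × 100%.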

MIC (Escherichia coli 926415) [µg/mL]	Pseudomonas aeruginosa ATCC 27853 MIC [1] [µg/mL]	Escherichia coli ATCC 25922 MIC [2] [µg/mL]	Klebsiella pneumoniae SSI #3010 MIC [3] [µg/mL]	MIC [4] [µg/mL]	MIC [5] [µg/mL]	MIC [6] [µg/mL]	Acinetobacter baumannii DSM 30008 MIC [7] [µg/mL]	MIC [1] [µg/mL]	MIC [2] [µg/mL]	MIC [3] [µg/mL]	MIC [7] [µg/mL]	Compound	Hemolysis at 200 μg/mL [8] [%]
0.125 (≈ 0.0517 µM)	0.0625	0.0625	0.0625	0.125 (≈ 0.0517 µM)	0.125 (≈ 0.0517 µM)	0.5 (≈ 0.207 µM)	0.0625					CC[C@H](C)[C@@H]1NC(=O)[C@H](CO)NC(=O)[C@H](Cc2c[nH]c3ccccc23)NC(=O)[C@H](CO)NC(=O)[C@@H](CCN)NC(=O)[C@H](CCC(=O)N[C@@H](CCN)C(=O)N[C@H](C(=O)N[C@@H](CN)C(=O)N[C@H]2CCNC(=O)[C@H]([C@@H](C)O)NC(=O)[C@H](CCN)NC(=O)[C@H](CCN)NC(=O)[C@H](CC(C)C)NC(=O)[C@@H](CC(C)C)NC(=O)[C@H](CCN)NC2=O)[C@@H](C)O)NC(=O)[C@H](CCN)NC(=O)[C@H](Cc2ccc(O)cc2)NC(=O)[C@@H](NC(=O)[C@@H](NC(C)=O)C(C)C)CCNC(=O)CC[C@@H](C(=O)N[C@@H](CO)C(N)=O)NC1=O [Ex. 324] (I: Ac-V[Dab]Y[Dab]E[dDab]SWSIES-NH2 / II: [Dab]T[Dap][Dab][Dab][dL]L[Dab][Dab]T; lactam I:2-I:11, II:4-II:C; amide I:5-II:N)	<1
0.125 (≈ 0.0523 µM)				0.125 (≈ 0.0523 µM)	0.125 (≈ 0.0523 µM)	0.125 (≈ 0.0523 µM)		0.125 (≈ 0.0523 µM)	0.0625 (≈ 0.0262 µM)	0.125 (≈ 0.0523 µM)	0.03125 (≈ 0.0131 µM)	CC(C)C[C@@H]1NC(=O)[C@@H](CC(C)C)NC(=O)[C@H](CCN)NC(=O)[C@@H](NC(=O)[C@H](CCN)NC(=O)[C@@H](NC(=O)[C@H](CCN)NC(=O)CC[C@@H]2NC(=O)[C@H](CO)NC(=O)[C@H](Cc3ccc(O)cc3)NC(=O)[C@@H](NC(=O)[C@@H](O)C(C)C)CSSC[C@@H](C(=O)N[C@H](CO)[C@@H](C)O)NC(=O)[C@H](C(C)(C)C)NC(=O)[C@H](CO)NC(=O)[C@H](Cc3c[nH]c4ccccc34)NC(=O)[C@H](CCO)NC(=O)[C@@H](CCN)NC2=O)[C@@H](C)O)CCNC(=O)[C@H]([C@@H](C)O)NC(=O)[C@H](CCN)NC(=O)[C@H](CCN)NC1=O [Ex. 88] (I: H-[Hiv]CYSE[dDab][hSer]WS[Tle]C[Thr(ol)] / II: [Dab]T[Dab][Dab][Dab][dL]L[Dab][Dab]T; disulfide I:2-I:11; amide I:5-II:N; lactam II:4-II:C)	<1
0.25 (≈ 0.103 µM)				0.125 (≈ 0.0513 µM)	0.125 (≈ 0.0513 µM)	0.125 (≈ 0.0513 µM)		0.125 (≈ 0.0513 µM)	0.125 (≈ 0.0513 µM)	0.0625 (≈ 0.0257 µM)	0.0625 (≈ 0.0257 µM)	CC(C)C[C@@H]1NC(=O)[C@@H](Cc2ccccc2)NC(=O)[C@H](CCN)NC(=O)[C@@H](NC(=O)[C@H](CCN)NC(=O)[C@@H](NC(=O)[C@H](CCN)NC(=O)CC[C@@H]2NC(=O)[C@H](CCN)NC(=O)[C@H](Cc3ccc(O)cc3)NC(=O)[C@@H](NC(=O)[C@@H](O)C(C)C)CSSC[C@@H](C(=O)N[C@H](CO)[C@@H](C)O)NC(=O)[C@H](C(C)(C)C)NC(=O)[C@H](CO)NC(=O)[C@H](Cc3c[nH]c4ccccc34)NC(=O)[C@H](CCO)NC(=O)[C@@H](CCN)NC2=O)[C@@H](C)O)CCNC(=O)[C@H]([C@@H](C)O)NC(=O)[C@H](CCN)NC(=O)[C@H](CCN)NC1=O [Ex. 61] (I: H-[Hiv]CY[Dab]E[dDab][hSer]WS[Tle]C[Thr(ol)] / II: [Dab]T[Dab][Dab][Dab][dF]L[Dab][Dab]T; disulfide I:2-I:11; amide I:5-II:N; lactam II:4-II:C)	3
